Test system: barnyardgrass (Echinochloa crus-galli)
Experiment: Test A pre-/postemergence greenhouse herbicide test, visual injury rating 0-100
Format: in vivo
Conditions: Postemergence, 1000 g ai/ha
In short: (§1)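 Scale 0–100 (none to complete control), visual, versus untreated controls after approx. 10 greenhouse days. Pre: directed soil spray at planting. Post: 2–10 cm, one- to two-leaf plants. Non-phytotoxic solvent plus surfactant vehicle.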

Row | Structure (SMILES) | Plant response rating (0 to 100 scale), Barnyardgrass
1 | Clc1cc(Cl)cc(-c2n[nH]cc2C(=NN2CCOCC2)c2ccccc2)c1 [Compound 55] | 0
2 | Clc1cccc(NN=C(c2ccccc2)c2c[nH]nc2-c2cc(Cl)cc(Cl)c2)c1 [Compound 56] | 0

Same assay, conditions: Preemergence, 1000 g ai/ha

Row | Structure (SMILES) | Plant response rating (0 to 100 scale), Barnyardgrass
3 | Clc1cc(Cl)cc(-c2n[nH]cc2C(=NN2CCOCC2)c2ccccc2)c1 [Compound 55] | 0
4 | Clc1cccc(NN=C(c2ccccc2)c2c[nH]nc2-c2cc(Cl)cc(Cl)c2)c1 [Compound 56] | 0

Test system: corn (Zea mays)
Experiment: as above
Format: in vivo
Conditions: Postemergence, 1000 g ai/ha
In short: as §1

Row | Structure (SMILES) | Plant response rating (0 to 100 scale), Corn
5 | Clc1cc(Cl)cc(-c2n[nH]cc2C(=NN2CCOCC2)c2ccccc2)c1 [Compound 55] | 0
6 | Clc1cccc(NN=C(c2ccccc2)c2c[nH]nc2-c2cc(Cl)cc(Cl)c2)c1 [Compound 56] | 0

Same assay, conditions: Preemergence, 1000 g ai/ha

Row | Structure (SMILES) | Plant response rating (0 to 100 scale), Corn
7 | Clc1cc(Cl)cc(-c2n[nH]cc2C(=NN2CCOCC2)c2ccccc2)c1 [Compound 55] | 0
8 | Clc1cccc(NN=C(c2ccccc2)c2c[nH]nc2-c2cc(Cl)cc(Cl)c2)c1 [Compound 56] | 0

Test system: giant foxtail (Setaria faberii)
Experiment: as above
Format: in vivo
Conditions: Postemergence, 1000 g ai/ha
In short: as §1

Row | Structure (SMILES) | Plant response rating (0 to 100 scale), Foxtail, Giant
9 | Clc1cc(Cl)cc(-c2n[nH]cc2C(=NN2CCOCC2)c2ccccc2)c1 [Compound 55] | 0
10 | Clc1cccc(NN=C(c2ccccc2)c2c[nH]nc2-c2cc(Cl)cc(Cl)c2)c1 [Compound 56] | 0

Same assay, conditions: Preemergence, 1000 g ai/ha

Row | Structure (SMILES) | Plant response rating (0 to 100 scale), Foxtail, Giant
11 | Clc1cc(Cl)cc(-c2n[nH]cc2C(=NN2CCOCC2)c2ccccc2)c1 [Compound 55] | 0
12 | Clc1cccc(NN=C(c2ccccc2)c2c[nH]nc2-c2cc(Cl)cc(Cl)c2)c1 [Compound 56] | 0

Test system: large (Lg) crabgrass (Digitaria sanguinalis)
Experiment: as above
Format: in vivo
Conditions: Postemergence, 1000 g ai/ha
In short: as §1

Row | Structure (SMILES) | Plant response rating (0 to 100 scale), Crabgrass, Large
13 | Clc1cc(Cl)cc(-c2n[nH]cc2C(=NN2CCOCC2)c2ccccc2)c1 [Compound 55] | 0
14 | Clc1cccc(NN=C(c2ccccc2)c2c[nH]nc2-c2cc(Cl)cc(Cl)c2)c1 [Compound 56] | 0

Same assay, conditions: Preemergence, 1000 g ai/ha

Row | Structure (SMILES) | Plant response rating (0 to 100 scale), Crabgrass, Large
15 | Clc1cc(Cl)cc(-c2n[nH]cc2C(=NN2CCOCC2)c2ccccc2)c1 [Compound 55] | 0
16 | Clc1cccc(NN=C(c2ccccc2)c2c[nH]nc2-c2cc(Cl)cc(Cl)c2)c1 [Compound 56] | 0

Test system: morningglory (Ipomoea spp.)
Experiment: as above
Format: in vivo
Conditions: Postemergence, 1000 g ai/ha
In short: as §1

Row | Structure (SMILES) | Plant response rating (0 to 100 scale), Morningglory
17 | Clc1cc(Cl)cc(-c2n[nH]cc2C(=NN2CCOCC2)c2ccccc2)c1 [Compound 55] | 0
18 | Clc1cccc(NN=C(c2ccccc2)c2c[nH]nc2-c2cc(Cl)cc(Cl)c2)c1 [Compound 56] | 0

Same assay, conditions: Preemergence, 1000 g ai/ha

Row | Structure (SMILES) | Plant response rating (0 to 100 scale), Morningglory
19 | Clc1cc(Cl)cc(-c2n[nH]cc2C(=NN2CCOCC2)c2ccccc2)c1 [Compound 55] | 0
20 | Clc1cccc(NN=C(c2ccccc2)c2c[nH]nc2-c2cc(Cl)cc(Cl)c2)c1 [Compound 56] | 0

Test system: pigweed (Amaranthus retroflexus)
Experiment: as above
Format: in vivo
Conditions: Postemergence, 1000 g ai/ha
In short: as §1

Row | Structure (SMILES) | Plant response rating (0 to 100 scale), Pigweed
21 | Clc1cc(Cl)cc(-c2n[nH]cc2C(=NN2CCOCC2)c2ccccc2)c1 [Compound 55] | 100
22 | Clc1cccc(NN=C(c2ccccc2)c2c[nH]nc2-c2cc(Cl)cc(Cl)c2)c1 [Compound 56] | 90

Same assay, conditions: Preemergence, 1000 g ai/ha

Row | Structure (SMILES) | Plant response rating (0 to 100 scale), Pigweed
23 | Clc1cc(Cl)cc(-c2n[nH]cc2C(=NN2CCOCC2)c2ccccc2)c1 [Compound 55] | 90
24 | Clc1cccc(NN=C(c2ccccc2)c2c[nH]nc2-c2cc(Cl)cc(Cl)c2)c1 [Compound 56] | 100

Test system: velvetleaf (Abutilon theophrasti)
Experiment: as above
Format: in vivo
Conditions: Postemergence, 1000 g ai/ha
In short: as §1

Row | Structure (SMILES) | Plant response rating (0 to 100 scale), Velvetleaf
25 | Clc1cc(Cl)cc(-c2n[nH]cc2C(=NN2CCOCC2)c2ccccc2)c1 [Compound 55] | 100
26 | Clc1cccc(NN=C(c2ccccc2)c2c[nH]nc2-c2cc(Cl)cc(Cl)c2)c1 [Compound 56] | 90

Same assay, conditions: Preemergence, 1000 g ai/ha

Row | Structure (SMILES) | Plant response rating (0 to 100 scale), Velvetleaf
27 | Clc1cc(Cl)cc(-c2n[nH]cc2C(=NN2CCOCC2)c2ccccc2)c1 [Compound 55] | 80
28 | Clc1cccc(NN=C(c2ccccc2)c2c[nH]nc2-c2cc(Cl)cc(Cl)c2)c1 [Compound 56] | 90

Test system: wheat (Triticum aestivum)
Experiment: as above
Format: in vivo
Conditions: Postemergence, 1000 g ai/ha
In short: as §1

Row | Structure (SMILES) | Plant response rating (0 to 100 scale), Wheat
29 | Clc1cc(Cl)cc(-c2n[nH]cc2C(=NN2CCOCC2)c2ccccc2)c1 [Compound 55] | 0
30 | Clc1cccc(NN=C(c2ccccc2)c2c[nH]nc2-c2cc(Cl)cc(Cl)c2)c1 [Compound 56] | 0

Same assay, conditions: Preemergence, 1000 g ai/ha

Row | Structure (SMILES) | Plant response rating (0 to 100 scale), Wheat
31 | Clc1cc(Cl)cc(-c2n[nH]cc2C(=NN2CCOCC2)c2ccccc2)c1 [Compound 55] | 0
32 | Clc1cccc(NN=C(c2ccccc2)c2c[nH]nc2-c2cc(Cl)cc(Cl)c2)c1 [Compound 56] | 0

Test system: barnyardgrass (Echinochloa crus-galli)
Experiment: Test B flooded paddy test, plant response rating 0-100
Format: in vivo
Conditions: Flood, 250 g ai/ha; scale 0 to 100 (0 no effect, 100 complete control); 13 to 15 days
In short: (§2)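 Under a constant 3 cm flood, test compounds went directly into the paddy water. Following 13 to 15 days of greenhouse growth, treated species and controls were compared by eye.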

Row | Structure (SMILES) | Plant response rating, Barnyardgrass
33 | Clc1cc(Cl)cc(-c2n[nH]cc2C(=NN2CCOCC2)c2ccccc2)c1 [Compound 55] | 0
34 | Clc1cccc(NN=C(c2ccccc2)c2c[nH]nc2-c2cc(Cl)cc(Cl)c2)c1 [Compound 56] | 0

Test system: ducksalad (Heteranthera limosa)
Experiment: as above
Format: in vivo
Conditions: Flood, 250 g ai/ha; scale 0 to 100 (0 no effect, 100 complete control); 13 to 15 days
In short: as §2

Row | Structure (SMILES) | Plant response rating, Ducksalad
35 | Clc1cc(Cl)cc(-c2n[nH]cc2C(=NN2CCOCC2)c2ccccc2)c1 [Compound 55] | 0
36 | Clc1cccc(NN=C(c2ccccc2)c2c[nH]nc2-c2cc(Cl)cc(Cl)c2)c1 [Compound 56] | 0

Test system: rice (Oryza sativa)
Experiment: as above
Format: in vivo
Conditions: Flood, 250 g ai/ha; scale 0 to 100 (0 no effect, 100 complete control); 13 to 15 days
In short: as §2

Row | Structure (SMILES) | Plant response rating, Rice
37 | Clc1cc(Cl)cc(-c2n[nH]cc2C(=NN2CCOCC2)c2ccccc2)c1 [Compound 55] | 0
38 | Clc1cccc(NN=C(c2ccccc2)c2c[nH]nc2-c2cc(Cl)cc(Cl)c2)c1 [Compound 56] | 0

Test system: sedge, umbrella (small-flower umbrella sedge, Cyperus difformis)
Experiment: as above
Format: in vivo
Conditions: Flood, 250 g ai/ha; scale 0 to 100 (0 no effect, 100 complete control); 13 to 15 days
In short: as §2

Row | Structure (SMILES) | Plant response rating, Sedge, Umbrella
39 | Clc1cc(Cl)cc(-c2n[nH]cc2C(=NN2CCOCC2)c2ccccc2)c1 [Compound 55] | 0
40 | Clc1cccc(NN=C(c2ccccc2)c2c[nH]nc2-c2cc(Cl)cc(Cl)c2)c1 [Compound 56] | 0
